Measured values reported in article PMC5307958 (Scientific Reports, 2017).
“Also recorded” adds a separate entry of the source. Where a SMILES comes first, the peptide text is derived from it. Bridges are numbered along the chain shown (N, C = ends).

Assays:
[1] = test system: wild-type worms (N2 Bristol; BK channel ortholog SLO-1); assay: C. elegans crawl speed, wild-type; type: in vivo, Caenorhabditis elegans; settings: for crawl speed relative to controls: 30 min pre-incubation in puddle, age-matched day one adults, tracked 1 min, p < 0.001; for effect on crawl speed: wild type, 30 min, p<0.001, N=81-210, planned Student's t-tests
Method: Worms were cultivated at 20 °C as described with OP50 bacteria. Worms cultured on plates contaminated with fungi or other bacteria were excluded from this study. The reference wild-type strain was N2 Bristol. The reference slo-1(null) strain and background for transgenic strains was NM1968, harboring the previously characterized null allele, js379[29]. Multi-site gateway technology (Invitrogen) was used to construct plasmids. […] of the native slo-1 promoter (Pslo-1) and the traditional unc-54 UTR were used in combination with slo-1a(cDNA)::mCherry for a rescue construct. To test rescue with the human BK channel, an hslo(ZERO isoform, cDNA)::mCherry version was constructed. The slo-1(+) and hslo(+) plasmids were injected at a concentration of 20 and 10 ng/μl, respectively. The co-injection reporter PCFJ90 (1.25 ng/μl) was used to ensure proper transformation of the arrays. As such, JPS345 carried vxEx345, an extrachromosomal array containing [Pslo-1::slo-1::mCherry::unc-54UTR,Pmyo-2::mCherry::unc-54UTR]. JPS340 carried […], an extrachromosomal array containing [Pslo-1::hslo::mCherry::unc-54UTR,Pmyo-2::mCherry::unc-54UTR].
Age-matched day one adults were cleaned of bacteria by letting them crawl around on an unseeded plate and then moved into a puddle of NGM or peptide dissolved in NGM on another unseeded plate. NGM and peptide treatment groups were always run in tandem to control for behavioral variance. While much shorter than typical drug applications in C. elegans, brief application in liquid was chosen to avoid potential catabolic by-products of incubation on metabolically active E. coli. Higher LS3 concentrations were used to compensate. The puddle was refreshed 1–2 times as needed, but let to fully absorb into the agar by 30 minutes. After 30 minutes, crawl behavior was videoed (Flea2 camera, Point Grey Research, Canada; StreamPix 3, NorPix, Canada). Copper rings restricted movement to a proscribed area. The worms were tracked offline using custom macros (Image-Pro, MediaCybernetics, Rockville, MD) for 1 minute to obtain crawl speed (cm/min). Group means ± SEM for peptide-treated vs. vehicle-treated controls were compared at each concentration with Student’s t-tests. Rescue analysis was completed with two-way ANOVA (SigmaPlot, San Jose, CA). Crawl speeds for the peptide treated groups were also normalized to the performance of yoked controls. Normalized group means±SEM were compared vs. slo-1 null performance by two-way ANOVA.

[2] = target: T1, human BKα channel (ZERO isoform) expressed in HEK293 cells (Homo sapiens, UniProt Q12791); assay: Patch-clamp recording, inside-out patches, intracellular application; type: cell-based; settings: 50 nM LS3 applied to intracellular (internal) side; n.s., N = 6
T1 construct: expressed in transfected cells; host or cells: HEK293 (ATCC), transient transfection with Lipofectamine 2000; EGFP cotransfected as a separate marker
T1 sequence (Q12791 1-1178 isoform Q12791-5): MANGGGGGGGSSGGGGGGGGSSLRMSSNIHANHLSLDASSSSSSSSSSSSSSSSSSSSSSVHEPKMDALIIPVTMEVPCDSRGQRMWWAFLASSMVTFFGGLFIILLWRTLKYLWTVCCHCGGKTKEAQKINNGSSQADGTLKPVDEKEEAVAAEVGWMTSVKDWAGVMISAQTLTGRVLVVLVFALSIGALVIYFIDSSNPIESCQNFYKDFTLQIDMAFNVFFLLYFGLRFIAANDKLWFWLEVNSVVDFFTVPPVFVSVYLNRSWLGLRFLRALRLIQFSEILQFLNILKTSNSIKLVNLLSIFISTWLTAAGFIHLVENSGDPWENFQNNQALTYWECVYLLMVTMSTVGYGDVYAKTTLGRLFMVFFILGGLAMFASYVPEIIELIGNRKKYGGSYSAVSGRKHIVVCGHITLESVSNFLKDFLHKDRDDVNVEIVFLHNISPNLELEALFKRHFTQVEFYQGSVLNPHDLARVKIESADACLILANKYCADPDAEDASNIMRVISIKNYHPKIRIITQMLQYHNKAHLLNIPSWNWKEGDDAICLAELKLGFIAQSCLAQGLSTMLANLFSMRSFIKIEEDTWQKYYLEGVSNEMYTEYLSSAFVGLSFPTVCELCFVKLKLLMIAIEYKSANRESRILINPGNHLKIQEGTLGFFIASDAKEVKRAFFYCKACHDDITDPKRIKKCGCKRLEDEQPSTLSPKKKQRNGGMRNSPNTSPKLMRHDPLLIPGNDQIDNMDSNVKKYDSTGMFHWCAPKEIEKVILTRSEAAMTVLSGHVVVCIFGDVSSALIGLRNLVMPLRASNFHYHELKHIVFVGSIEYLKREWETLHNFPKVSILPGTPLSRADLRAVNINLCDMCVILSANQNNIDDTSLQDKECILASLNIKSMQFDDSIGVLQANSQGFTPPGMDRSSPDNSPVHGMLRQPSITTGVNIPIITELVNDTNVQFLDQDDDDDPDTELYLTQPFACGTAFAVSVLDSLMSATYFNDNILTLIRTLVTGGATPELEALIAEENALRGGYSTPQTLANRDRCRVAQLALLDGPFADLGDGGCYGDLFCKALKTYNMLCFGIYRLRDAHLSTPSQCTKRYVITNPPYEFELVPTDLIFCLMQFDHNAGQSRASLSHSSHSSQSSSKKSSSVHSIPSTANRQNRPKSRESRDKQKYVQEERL

mAcetylcholine M1 = assay: Competition radioligand binding (NIMH PDSP); settings: radioligand QNB, measured 4 times
mAcetylcholine M4 = assay: Competition radioligand binding (NIMH PDSP); settings: radioligand QNB, measured 4 times
[3] = Blood-brain barrier crossing inferred from functional activity in the IC; type: in vivo, mouse; settings: inferred from suppression of sound evoked activity after topical (dura) or systemic (0.3 mg/kg I.P.) administration
Method: The temperature was maintained near 25 °C.

[4] = test system: human BKα channel ZERO isoform expressed in HEK293 cells; assay: Phagemid display selection (panning); type: binding
Description: A monovalent phagemid display library (library C, Mobitec) was sequentially panned against three sets of HEK293 cells (see below). For negative selection, cells expressed the human glycine receptor α1 (hGlyRα1, X52009) and the rat small conductance calcium-activated channel 2 (rSK2, U69882.1). For positive selection, cells expressed the human BKα channel ZERO isoform (NM_002238). The progress of the selection process was monitored after each panning round by titering and sequencing the phagemid DNA. With 6 randomized and 3 fixed amino acids, this library started with 3 × 10^7 unique sequences. LS3 was selected as one of the sequences expressing motifs that were enriched more than 1000 -fold. LS3 was synthesized as a TFA salt at 98–99% purity verified by HPLC and MS analysis (Genscript, Piscataway, NJ). Stocks were dissolved in water at 10 mM and aliquots were lyophilized and stored at −80 °C. As a secondary determination of identity and purity, in-house LC/MS was performed on a single quadrupole Mass Spectrophotometer (Agilent 6130) interfaced with a HPLC with a diode-array (UV-vis) detector (Agilent 1200).
HEK293 cells (ATCC, Manassas, VA) were grown according to standard procedures. Cells were cultured at 37 °C in a 5% CO2 atmosphere in Dulbecco’s modified Eagle’s medium with L-glutamine, sodium pyruvate and 10% fetal bovine serum (Invitrogen). Cell lines were split with trypsin/EDTA in Hanks’ balanced salt solution (Invitrogen) up to 25–30 cycles. For phage display, stable lines stably expressed rSK2 or hBKα ZERO isoform. Cells were transfected (Lipofectamine 2000, Invitrogen) with hGlyRα1 and used 48 hours later. For electrophysiological recordings, cells were transfected with hBKα ZERO isoform. Enhanced green fluorescent protein (EGFP) was cotransfected as a marker. Electrophysiological recordings were made 16–72 h after transfection. […]

[5] = test system: mouse inferior colliculus (auditory midbrain); assay: Sound evoked activity within excitatory receptive field (eRF), systemic administration; settings: for spikes within the eRF, representative eRF: baseline 522 spikes, BF 19.5 kHz
[6] = test system: mouse inferior colliculus (auditory midbrain); assay: Sound evoked activity within excitatory receptive field (eRF), topical application on dura
[7] = phage-displayed sequence CRRGLVQVC

CC(C)C[C@@H]1NC(=O)CNC(=O)[C@H](CCCNC(=N)N)NC(=O)[C@H](CCCNC(=N)N)NC(=O)[C@@H](N)CSSC[C@@H](C(=O)O)NC(=O)[C@H](C(C)C)NC(=O)[C@H](CCC(N)=O)NC(=O)[C@H](C(C)C)NC1=O [LS3] (H-CRRGLVQVC-OH; disulfide 1-9; N-terminus and C-terminus assumed)
crawl speed relative to controls ([1]; 250 μM LS3 in NGM): ~ 85%
crawl speed relative to controls ([1]; 750 μM LS3 in NGM): ~ 70%
effect on crawl speed ([1]; 75 µM LS3 vs. vehicle): reduced
effect on crawl speed ([1]; 250 µM LS3 vs. vehicle): reduced
effect on crawl speed ([1]; 750 µM LS3 vs. vehicle): reduced
effect on crawl speed / locomotion ([1]; wild-type, LS3 in NGM, 30 min bath, WT vs. slo-1(null) at 250 and 750 μM: p < 0.05 and p < 0.001, N = 139–372): reduced crawl speed; also recorded: slowed locomotion in a concentration-dependent manner
effect on Po (post vs. pre peptide) [2]: did not reduce Po; also recorded: Only when applied to the external side did LS3 significantly reduce Po
% inhibition by 10 µM LS3 (mAcetylcholine M1): 12.6%
% inhibition by 10 µM LS3 (mAcetylcholine M4): 6.8%
ability to cross the BBB [3]: can cross the BBB; also recorded: rapidly crosses the BBB after systemic delivery; also recorded: crosses the blood-brain barrier (BBB)
enrichment of motifs expressed by the sequence ([4]; criterion for selection of LS3): more than 1000 fold
enrichment of motif RRXXXXV during selection [4, 7]: ~ 4000 fold
enrichment of motif XRGXXXV during selection [4, 7]: ~ 3000 fold
effect on sound evoked activity in the inferior colliculus ([5]; 0.3 mg/kg I.P. LS3): suppressed sound evoked activity in the inferior colliculus; also recorded: suppresses sound evoked activity in the IC when administered systemically
spikes within the eRF, representative eRF ([5]; systemic (0.3 mg/kg I.P.) LS3, 2 hrs): 41 spikes
spikes within the eRF, representative eRF ([5]; systemic (0.3 mg/kg I.P.) LS3, 5 hours): 37 spikes
reduction in spikes within the eRF ([5]; systemic (0.3 mg/kg I.P.) LS3, over 2 hours, mean, 47 units from 5 CBA mice): 85%
decrease in sound evoked activity within the receptive field, representative eRF ([5]; systemic (0.3 mg/kg I.P.) LS3, over 5 hours): 93%
time course of driven activity ([5]; systemic LS3, mean of 49 units, F(32,936) = 7.724 P < 0.0001): continued to decline out to 7 hours
mean driven activity within receptive field ([6]; 1 μL of 10 μM LS3, 120 minutes post application, baseline 450 spikes, mean, 49 units): ~ 225 spikes
reduction of mean sound evoked activity ([6]; 1 μL of 10 μM LS3, after 3 hours, 47 recording sites, N = 5 mice): ~ 70%
mean sound evoked activity ([6]; 1 μL of 10 μM LS3, after 3 hours, baseline 430, 47 recording sites, N = 5 mice): 130 spikes
time course of driven activity ([6]; 1 μL of 10 μM LS3, mean of 49 units, F(5,206) = 5.085 P = 0.0002): continued to decline out to 4 hours
reduction of sound evoked driven activity within the RF ([6]; 1 μL of 10 μM stock, from baseline pre-peptide, Fig. 5A,B representative eRFs): approximately 50%
